Data published in patent US20230000876A1, “TREATING CANCERS WITH A CYCLIN-DEPENDENT KINASE INHIBITOR” (Nuvation Bio Inc., priority 2021, published 2023).

System: U-87MG-luc orthotopic intracranial tumors
Experiment: U-87MG-luc glioblastoma orthotopic intracranial model, survival
Format: in vivo, female BALB/c nude mice
Description: U-87MG-luc cells were derived from U-87MG parental cells acquired from ATCC by stably introducing the gene that encodes the luciferase (luc) protein. The U-87MG-luc cells were cultured at 37° C. in an atmosphere of 5% CO2 in air. The tumor cells were routinely subcultured twice weekly. The cells growing in an exponential growth phase were harvested and counted for tumor inoculation.
3×10^5 U-87MG-luc tumor cells were micro-injected into the right lobe (caudate nucleus) of the brain of each mouse. A total of 94 mice were inoculated. Ten days after cell inoculation, bioluminescence were measured by Xenogen IVIS Lumina II machine, 70 mice were selected and randomly assigned into 7 groups based on bioluminescence intensity and bodyweight. The mice were dosed according to Table 25.

In the case of `CC(C)N1CCOc2c(F)cc(-c3nc(Nc4ccc(C5CCN(C)CC5)cn4)ncc3F)cc21` [Compound (I), 5-fluoro-4-(8-fluoro-4-isopropyl-3,4-dihydro-2H-benzo[b][1,4]oxazin-6-yl)-N-(5-(1-methylpiperidin-4-yl)pyridin-2-yl)pyrimidin-2-amine], the Median survival (1 mg/kg PO*QD (vehicle 37 days)) is reported as 37 days, the Median survival (3 mg/kg PO*QD (vehicle 37 days)) is reported as 40.5 days and the Median survival (10 mg/kg PO*QD (vehicle 37 days)) is reported as 45 days. The Median survival (30 mg/kg IV*QW (vehicle 37 days)) was 39.5 days, the Median survival (30 mg/kg PO*QD (vehicle 37 days)) was 56 days and the “Survival compared to vehicle treated group” value (PO at 10 mg/kg and 30 mg/kg) was “significantly prolonged survival”.
